Measurements reported in patent US5998423A, “Methods for modulating melanin production” (Therasys, Inc., priority 1997, dated 1999).

What was measured:
melanoma cell lines = conditions: cited from earlier work
[1] = test system: Mouse, Cloudman S91 Melanoma Cell line; assay: Stimulation of melanin synthesis in cell culture (melanin content, OD 475 nm); assay type: cell-based; conditions: result in words; incubation 5-7 days at 37° C.; values only in FIG. 6
Source text: A Mouse, Cloudman S91 Melanoma Cell line (Clone M-3, ATCC CCL-53.1) was used. The cells were flown as monolayers. These cells multiply 7-8 fold in 7 days and are know to produce melanin in over 50% of the cells up to at least 33 passages. Horse serum, fetal Bovine serum, Penicillin-streptomycin and F-10 nutrient mixture were all obtained from Life Technologies (GIBCO, Grand Island, N.Y.). N^6 -Cyclopentyl-9-methyladenine (N-154) and C-102 (CPT) were obtained from RBI (Natick, Mass.). 1-Oleoyl-2-acetyl-rac-glycerol, activated charcoal, Triton X-100, phenyl methyl sulfonyl fluoride, theophylline, synthetic melanin and L-tyrosine-[Ring-3,5] were all obtained from Sigma Chemical Co. (St. Louis, Mo.). The culture medium used was Ham's F-10. The composition of the medium was as follows: Ham's F-10 Nutrient Mixture (82.5%), horse serum (15.0%), fetal bovine serum (2.5%), penecillin-streptomycin mixture (1.0%).
Cells were incubated with the indicated reagents (see FIG. 6) at 37° C. under 5% CO2 atmosphere for 5-7 days. At the time of harvest, exhausted medium was removed from flasks/wells and cells were treated with 1-5 mL of 0.25% trypsin for 2-3 minutes. […]
The pellet (from above extraction) was dissolved in 0.25 mL of 0.5 N NaOH and the optical density was measured at 475 nm. The melanin content was determined from a standard curve obtained by using a synthetic melanin.

adenylate cyclase = conditions: through activation of adenylate cyclase, thereby increasing cAMP levels; cited from earlier work

Question: For `Cn1c(=O)c2[nH]cnc2n(C)c1=O` [Theophylline, theophylline], which stimulation of melanogenesis (melanoma cell lines) is on record?
Answer: potent stimulator of melanogenesis

Question: With `Cn1cnc2c(NC3CCCC3)ncnc21` [N^6 -Cyclopentyl-9-methyladenine] as the compound, how does the “stimulation of melanin synthesis” value [1] read?
Answer: stimulation of melanin synthesis

Question: With α-MSH as the compound, how does the melanin production (adenylate cyclase) read?
Answer: increase melanin production
